{"source": "patent US9446051B2", "about": "“Neuroprotection and myelin repair using nestorone®” (The Population Council, Inc., priority 2009, dated 2016)", "key": {"[1]": {"tested_on": "organotypic neonatal rat or mouse cerebellar slice culture", "assay": "Myelination in organotypic cerebellar slice culture, measured by myelin basic protein (MBP) immunoreactivity", "assay_type": "cell-based", "text": "In experiments conducted in organotypic neonatal rat or mouse cerebellar slice culture, progesterone accelerated axon myelination (13,14)."}, "[2]": {"tested_on": "lysolecithin-demyelinated cerebellar slices", "assay": "Remyelination of lysolecithin-demyelinated cerebellar slices (MBP staining intensity)", "assay_type": "cell-based, rat or mouse", "conditions": "NES 20 μM, 3 days of incubation", "procedure": "In the same animal model, cerebellar slices were cultured until myelination was complete, then incubated overnight with lysolecithin (LYSO) to produce demyelination utilizing a known technique, (15) followed by 3 days of incubation with NES 20 μM in fresh culture medium (10% penetration in slices). Slices were immunostained for MBP. […] MBP staining intensity was measured in cerebellar slices after completion of normal myelination, after demyelination with lysolecithin, and after 3 days of incubation with NES at 20 μm, RU486 at 10 μM, or NES+RU486."}, "[3]": {"tested_on": "neural progenitor cell (NPC)", "assay": "Neural progenitor cell proliferation, BrdU chemiluminescence ELISA", "assay_type": "cell-based, rat", "procedure": "In vitro studies were carried out to determine neural progenitor cell (NPC) regeneration in rats. Cell proliferation was determined by S phase incorporation of BrdU. After 4 to 6 hours starvation (medium without supplements), rNPCs were loaded with 10 μM BrdU in the presence or absence of bFGF and varying concentrations of P4 or test progestins in unsupplemented maintenance medium for 1d. The rNPCs were then processed as described previously (1, 14). After subtracting the value of the blank (without BrdU loading), data were analyzed using a one-way ANOVA, followed by a Neuman-Keuls post hoc test."}, "[4]": {"tested_on": "primary hippocampal neurons", "assay": "Neuroprotection of primary hippocampal neurons against glutamate, LDH release", "assay_type": "cell-based", "procedure": "The effect of NES and other progestins on CNS plasticity and the neuroprotective efficacy against glutamate toxicity has also been evaluated. LDH was measured, as a well-accepted assay, to determine such effect after exposure of the cells to glutamate, and the neuronal viability was assessed under the action of various progestins.\nComparisons of neuroprotection against neurodegenerative insults were carried out. Efficacy was determined in connection with the protection of primary hippocampal neurons against degeneration induced by excitoxic glutamate. Hippocampal neuronal cultures grown on […] culture plates for 7d in vitro were pretreated with vehicle alone or test compounds, followed by exposure to 200 μM glutamate as previously described (13). After glutamate exposure, cultures were washed with HEPES-buffered saline solution and replaced with fresh NBM containing the test compounds or combinations. Cultures were returned to the incubator and incubated for 24 hours prior to analysis of neuronal viability using colorimetric LDH release in the media. Dose-response analysis was conducted for each of the progestins tested, and the results are shown in FIGS. 7A-F. Neuroprotective efficiency was calculated as follows: NE=(Vsample−Vglutamate)/(Vsubcontrol−Vglutamate)."}, "[5]": {"tested_on": "hippocampus of Sprague-Dawley ovariectomized female rats", "assay": "In vivo NPC proliferation and cell viability in ovariectomized rats (Western blot, FACS of BrdU+ cells)", "parameters": "species or system rat", "procedure": "The generalized ability of the above in vitro findings to the in vivo condition were investigated. Analyses of NPC proliferation in rats and cell viability were conducted in three-month-old Sprague-Dawley ovariectomized female rats with various of the progestins. […] In order to assess the total number of BrdU+ cells, the contralateral hippocampal hemisphere used for protein analysis was fixed and processed by FACS analysis. The total number of BrdU+ cells per each hippocampus was determined and normalized to that of vehicle control. […] In order to measure cell viability in terms of promotion of mitochondrial function and reduction in oxidative damage expression of the alpha subunit of ATP synthase-Complex V (CVα) of the mitochondrial oxidative phosphorylation pathway was assessed by Western blot analysis."}, "[6]": {"tested_on": "Bax/Bcl-2", "assay": "In vivo apoptotic activity, Bax/Bcl-2 ratio by Western blot", "conditions": "indicator of in vivo apoptotic activity", "text": "The effects of various progestins on apoptosis was studied using Western blot analysis to determine the expression level of Bax, an apoptosis mediator by […] to the mitochondria to release apoptotic factors such as cytochrome c and Bcl-2. The ratio of Bax to Bcl-2 was used as an indicator of in vivo apoptotic activity."}, "[7]": {"tested_on": "hippocampi of ovariectomized female Sprague Dawley rats", "assay_type": "in vivo", "conditions": "progestin plus E2, hippocampi 24 hours after injection, FIG. 9A", "procedure": "The impact of the combination of 17β-estradiol (E2) and various progestins on neurogenesis and cell viability […] was also carried out. Young adult ovariectomized female Sprague Dawley rates were thus divided into six groups and received injection of either E2 alone or E2 combined with one of the progestins. Hippocampi were isolated 24 hours later for Western blot analysis and flow cytometry to determine the impact of treatment on cell viability and neurogenesis respectively. The expression level of PCNA was assessed to determine the impact of the treatment compounds on entry into the cell cycle required for neurogenesis."}, "[8]": {"tested_on": "PR^lacz mice with MCAO", "assay": "Transient middle cerebral artery occlusion (MCAO), steroid treatment after reperfusion", "assay_type": "in vivo, mouse", "procedure": "In experiments conducted using progesterone receptor (PR) deficient mice (PR^−/−) compared with PR^+/− and PR^+/+ mice and both progesterone and Nestorone® were administered after ischemia and reperfusion.\nIn order to test the effect of steroid treatments after reperfusion, adult male PR^lacz mice were anesthetized and the middle cerebral artery (MCA) was occluded for one hour with an intraluminal filament. After ligature of the left common carotid artery, a nylon monofilament coated with thermo-melting glue was introduced through an arteriotomy performed on the external carotid artery and advanced into the internal carotid artery. Occlusion of the MCA was controlled by monitoring the cerebral blood flow within the MCA territory by laser Doppler flowmetry. The filament was withdrawn one hour after occlusion to allow reperfusion, and the common carotid artery ligature was also removed. The mice were randomly and blindly assigned to either progesterone, allopregnanolone or Nestorone®, or vehicle-treated (sesame oil; sigma). All of the steroids were initially dissolved in a small volume of ethanol and further diluted in sesame oil to obtain the desired final steroid concentrations. Injections were given interperitoneally (IP) at 1, 6, and 24 hours after MCA occlusion (MCAO) according to established neuroprotective protocols. Treated mice were killed at 48 hours after MCAO.\nCerebral infarct volumes and areas were determined after triphenyltetrazolium chloride (TTC) staining of brain sections. The details of this procedure are set forth in “Progesterone Receptors: A Key For Neuroprotection In Experimental Stroke,” Endocrinology, August 2012, 153(8), pp. 1-11, which is incorporated herein by reference thereto in its entirety. […] In FIGS. 11, 12 and 13, after the administration of progesterone and Nestorone®, in neuronal density the infarct (FIG. 11) and the penumbra (FIG. 12) can clearly be shown. In FIG. 13 the decrease in […] in the penumbra after administration of progesterone and Nestorone® is also clearly shown."}, "[9]": {"tested_on": "androgenic, estrogenic and glucocorticoid responses", "conditions": "cited from earlier work"}, "[10]": {"conditions": "PR^+/+ mice, 48 hours after MCAO"}}}
{"smiles": "C=C1C[C@H]2[C@@H]3CCC4=CC(=O)CC[C@@H]4[C@H]3CC[C@]2(C)[C@@]1(OC(C)=O)C(C)=O", "note": "[Nestorone®, 16-methylene-17α-acetoxy-19-norpregn-4-ene-3,20-dione]", "values": [{"measurement": "promyelinating potency relative to PROG", "setting": "[1]", "value": "significantly more potent than PROG"}, {"measurement": "concentration of equal promyelinating activity", "setting": "[1]; NES at 20 μm as active as PROG at 50 μm (FIG. 1)", "value": 20, "unit": "μm"}, {"measurement": "myelination measured by myelin basic protein (MBP) immunoreactivity", "setting": "[1]; cerebellar slice culture", "value": "promote dose-dependent myelination"}, {"measurement": "remyelination after lysolecithin demyelination", "setting": "[2]", "value": "produced remyelination"}, {"measurement": "proliferation of progenitor cells compared with progesterone", "setting": "[3]; FIG. 3 and FIG. 4", "value": "as effective or even more effective than progesterone"}, {"measurement": "NPC proliferation (BrdU incorporation) compared with progesterone", "setting": "[3]; at 24 hours, FIGS. 6A-D", "value": "comparably efficacious at their EC100 concentrations"}, {"measurement": "neuroprotective efficacy against glutamate toxicity (LDH)", "setting": "[4]; FIG. 5, NES and PROG at 10−7M", "value": "exerted the higher efficacy"}, {"measurement": "neuroprotective efficacy against 200 μM glutamate (LDH release) compared with progesterone", "setting": "[4]; dose-response, FIGS. 7A-F", "value": "comparable neuroprotective efficacy to that of progesterone"}, {"measurement": "total number of BrdU+ cells per hippocampus", "setting": "[5]; FACS, normalized to vehicle control, FIG. 8B", "value": "slightly superior to progesterone in significantly increasing Brd+ cell numbers"}, {"measurement": "CDC2 protein expression", "setting": "[5]; Western blot", "value": "significantly increased"}, {"measurement": "PCNA expression at the protein level", "setting": "[5]; Western blot, FIG. 8A", "value": "slightly superior to progesterone"}, {"measurement": "expression of alpha subunit of ATP synthase-Complex V (CVα)", "setting": "[5]; Western blot, FIG. 8C", "value": "increased CVA expression even greater than progesterone and levonorgestrel"}, {"measurement": "ratio of Bax/Bcl-2 expression", "setting": "[6]", "value": "no effect"}, {"measurement": "PCNA expression and neural progenitor cell proliferation", "setting": "[7]", "value": "greatest magnitude of PCNA expression and neural progenitor cell proliferation"}, {"measurement": "total infarct volume and ischemic lesions in cerebral cortex and subcortical structures, PR^+/+ mice", "setting": "[8]; PR^+/+ mice", "value": "clearly reduced"}, {"measurement": "increase of time on the rotarod", "setting": "[8]; [10]", "value": 33, "unit": "%"}, {"measurement": "reduction of ischemic lesions in cerebral cortex", "setting": "[8]; [10]", "value": 22, "unit": "%"}, {"measurement": "reduction of ischemic lesions in subcortical structures", "setting": "[8]; [10]", "value": 52, "unit": "%"}, {"measurement": "reduction of total infarct volume", "setting": "[8]; PR^+/+ mice, 48 hours after MCAO, IP at 1, 6 and 24 hours", "value": 32, "unit": "%"}, {"measurement": "total infarct volume and ischemic lesions in cerebral cortex and subcortical structures, PR^+/− mice", "setting": "[8]; PR^+/− mice", "value": "not"}, {"measurement": "protection against ischemic damage compared with progesterone", "setting": "[8]; PR^−/−, PR^+/− and PR^+/+ mice, after ischemia and reperfusion", "value": "at least comparable results"}, {"measurement": "efficient neuroprotective dose", "setting": "[8]; after stroke", "value": 0.08, "unit": "mg/kg"}, {"measurement": "dose improving neurological outcomes relative to that of progesterone", "setting": "[8]; mouse, in vivo", "value": 100, "unit": "times lower"}, {"measurement": "microglial density in the penumbra (neuroinflammatory responses)", "setting": "[8]; treatment after stroke", "value": "reduced microglial density"}, {"measurement": "neuronal density in the infarct and in the penumbra", "setting": "[8]; treatment after stroke", "value": "significantly increases the neuronal density"}, {"measurement": "androgenic response", "setting": "[9]", "value": "no androgenic or estrogenic action at all"}, {"measurement": "estrogenic response", "setting": "[9]", "value": "no androgenic or estrogenic action at all"}, {"measurement": "glucocorticoid response", "setting": "[9]", "value": "does not elicit a glucocorticoid effect except at doses 2.000-fold the therapeutic dose"}]}
